# What was measured:
# Type in all cases: cell-based
# E. coli = assay: MIC against E. coli
# Source text: TABLE 18 details the obtained MIC values for cells treated with compound 1, light, PMB, and Polymyxin E (PME) against E. coli.
# [1] = tested on: K. pneumoniae ATCC BAA-2341; assay: MIC of PMB and PME; details: K. pneumoniae ATCC BAA-2341 (so in the source)
# Source text: (§1) TABLE 25 details the MICs of PMB and PME against E. cloacae and K. pneumoniae.
# E. cloacae ATCC BAA-2341 = assay: MIC of PMB and PME
# Source text: as §1
# [2] = tested on: Klebsiella pneumoniae (CRE, ATCC BAA-1705); assay: MIC against CRE
# Method: TABLE 27 details the individual MIC values of compounds 1, 7, 8, 9, 10, 11, PMB, PME, and light against CRE.
# The MICs of PME and compounds 8-11 were determined against Klebsiella pneumoniae (CRE, ATCC BAA-1705). […] After the incubation with PME, the compounds were added at a concentration of 20 μM, and the samples were further incubated. At specific time points, the samples were taken and diluted ten-fold in media. Ten microliters of each dilution was then drip-streaked onto an agar plate and incubated overnight at 37° C. Colony counts were then performed and the CFU/mL were calculated.
# P. aeruginosa = assay: MIC against P. aeruginosa
# Source text: Only compound 1 was able to decrease the CFU/mL when used in conjunction with white light to treat P. aeruginosa.
# [3] = tested on: A. baumannii (ATCC 15151); assay: MIC against A. baumannii
# Method: TABLE 28 details the individual MIC values of compounds 1, 7, 8, 9, 10, 11, PMB, PME, and light against A. baumannii.
# The MICs of PME and compounds 8-11 were determined against A. baumannii (ATCC 15151). […] After incubating the cells with PME, a compound (5 μM) was added, and the samples were further incubated at 37° C. At specific time points, samples were taken and diluted ten-fold in media. Ten microliters of each dilution was then drip-streaked onto an agar plate and incubated overnight at 37° C. Colony counts were then performed, and the CFU/mL were calculated.
# [4] = tested on: Klebsiella pneumoniae (CRE, ATCC BAA-1705); assay: Cell killing of CRE with compounds in presence or absence of PMB (CFU/mL); details: PMB alone
# Method: Klebsiella pneumoniae (CRE, ATCC BAA-1705) was grown in TSB overnight at 37° C. and diluted to about 5×10^5 CFU/mL using a McFarland Latex Turbidity standard (0.5). One mL of the cell suspension was transferred to a glass culture test tube. PMB was added to the cell suspension resulting in a final concentration of 200 μg/mL of PMB. The cell suspension was incubated at 37° C. on a rotary shaking incubator at 150 rpm for 4 hours. Compounds 1, 7, 8, 9, 10, and 11 were added to the cell suspension, resulting in a concentration of 20 μM for each of the compounds. The cell suspensions containing the compounds were incubated at 37° C. on a rotary shaking incubator at 150 rpm for 4 hours. Each sample was diluted tenfold to a 10^−5 dilution. Ten 10 microliters of each dilution from each sample was dripped onto a TSA plate and allowed to streak down the plate. The agar plates were incubated at 37° C. for 18-24 hours. Colony counts were performed and CFU/mL values were calculated.
# The MICs of PMB and compounds 7-11 were determined against Klebsiella pneumoniae (CRE, ATCC BAA-1705). […] After the incubation with PMB, each of the compounds was added at a concentration of 20 μM, and the samples were incubated for an additional 18 hours. A sample was taken and diluted ten-fold in media. Ten microliters of each dilution was then drip-streaked onto an agar plate and incubated overnight at 37° C. Colony counts were then performed and the concentrations of cells (CFU/mL) were calculated.
substance,measurement,setting,value
"Polymyxin E [PME, reference compound]",E. Coli MIC,E. coli,2 µg/mL
same,MIC,[1],16 µg/mL
same,MIC,E. cloacae ATCC BAA-2341,16 µg/mL
same,CRE MIC,[2],4 µg/mL
same,MIC,P. aeruginosa,2 µg/mL
same,A. baumannii MIC,[3],0.5 µg/mL
"polymyxin B [PMB, reference compound]",E. Coli MIC,E. coli,2 µg/mL
same,MIC,E. cloacae ATCC BAA-2341,4 µg/mL
same,CRE MIC,[2],4 µg/mL
same,PMB @ 0.2 μg/mL,[4],1.8 × 10^6 CFU/mL
same,A. baumannii MIC,[3],4 µg/mL

# Source: US9834514B2, “Antibiotic sensitivity-restoring and photosensitive agents” (New Mexico Tech Research Foundation, priority 2015, dated 2017)
